Measured values: patent US11198673B2, “Therapeutic compounds and compositions” (eXIthera Pharmaceuticals, Inc., priority 2014, dated 2021)
pIC50: −log10 of the molar value.

How the values were obtained:
human Factor XIa = target: T1, human Factor XIa (Homo sapiens, UniProt P03951); assay: Factor XIa enzyme inhibition assay (IC50, purified enzyme); format: biochemical; conditions: purified enzyme 0.25 nM, substrate 50 μM; read-out: Potency hFXIa IC50
T1 construct: Enzyme: Factor XIa; 0.25 μM in 50% glycerol (20 μg/mL)
Procedure, shortened: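 Fluorogenic Glp-Pro-Arg-AMC cleavage, 50 μM substrate, 0.25 nM enzyme, in 20 mM Hepes pH 7.4, 150 mM NaCl, 0.02% Tween 20. Serial two-fold compound dilutions from starting concentrations of 20, 2 and 0.2 μM. Read every minute for 30 min at 30° C; IC50 from a four-parameter fit of dose-response.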

Factor Xa = target: T2, Factor Xa (Homo sapiens, UniProt P00742); assay: Dose response assay for protease inhibitors: Factor Xa (FXIa fold selectivity); format: biochemical; conditions: fold selectivity for FXIa over Factor Xa
T2 construct: Factor Xa; 0.2 μM in 50% glycerol (9.2 μg/mL)

Thrombin = target: T3, Thrombin (Homo sapiens, UniProt P00734); assay: Dose response assay for protease inhibitors: thrombin (FXIa fold selectivity); format: biochemical; conditions: fold selectivity for FXIa over thrombin
T3 construct: Thrombin; 0.2 μM in 50% glycerol (7.34 μg/mL)

Trypsin = assay: Dose response assay for protease inhibitors: trypsin (FXIa fold selectivity); format: biochemical; conditions: fold selectivity for FXIa over trypsin
[1] = β-Lactam stability in rat plasma; format: in vitro ADME; conditions: normal rat plasma, room temperature; read-out: Rat Plasma Stability (T1/2; min)
Procedure, shortened: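 Compounds incubated in normal rat plasma at room temperature, sampled into acetonitrile from 2 to 480 min. Supernatants analysed by HPLC-MS on C18, extracted ion chromatograms of parent and parent+18 (H2O adduct) integrated; T½ = ln(2)/k from single-phase exponential decay fit.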

in vitro [2] = conditions: both, human, plasma, pH 7.4
Description: The following procedure was used to determine the plasma protein binding of a test compound in pooled plasma from human (mixed gender) via equilibrium dialysis in a 96-well plate format. The dialysate compartment is loaded with phosphate-buffered saline (pH 7.4) and the sample side is loaded with plasma spiked with the test compound at a concentration of 10 μM. After loading, samples are covered and incubated for 4 hours at 37° C. After incubation, each compartment is sampled, diluted with acetonitrile/buffer and centrifuged. The supernatants are analyzed by HPLC-MS/MS. The amount measured in the plasma compartment includes both free and bound drug, while that on the buffer side represents free drug only; the differences are used to calculate the percentage plasma protein bound.

physchem = format: physicochemical; conditions: pH 7.4, aqueous buffer, kinetic from dmso stock
Description: The test compound was prepared at 200 μM in PBS from a 10 mM DMSO stock solution. The final DMSO concentration was 2%. The PBS buffer samples were mixed thoroughly followed by incubation at room temperature for 24 h. At the end of the incubation, the PBS buffer samples were centrifuged and supernatants analyzed by HPLC.

in vitro [3] = conditions: both, human, microsomes, pH 7.4
Description: The following procedure was used to determine the stability of a test compound in pooled liver microsomes from human (mixed gender) in 96-well plate format. The test compound was quantified at five time points by HPLC-MS/MS analysis. The final microsomal protein concentration in the assay was 0.1 mg/mL. […] The test compound was pre-incubated with human liver microsomes in phosphate buffer (pH 7.4) for 5 min in a 37° C. shaking waterbath. The reaction was initiated by adding NADPH-generating system and incubated for 0, 15, 30, 45, and 60 minutes. The reaction was stopped by transferring the incubation mixture to acetonitrile/methanol. Samples were then mixed and centrifuged and the supernatants used for HPLC-MS/MS analysis. Peak areas corresponding to the test compound were recorded. The compound remaining was calculated by comparing the peak area at each time point to time zero.

T2 sequence (P00742 235-488 limits assumed): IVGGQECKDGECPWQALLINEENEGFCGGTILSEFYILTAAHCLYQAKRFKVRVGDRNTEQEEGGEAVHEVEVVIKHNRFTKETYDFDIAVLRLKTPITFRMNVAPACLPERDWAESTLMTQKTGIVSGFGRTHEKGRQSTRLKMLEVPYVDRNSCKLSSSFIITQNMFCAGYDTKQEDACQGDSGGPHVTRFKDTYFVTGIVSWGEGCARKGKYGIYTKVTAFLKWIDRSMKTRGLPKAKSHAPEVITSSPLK
T2 sequence (P00742 41-179 partner limits assumed): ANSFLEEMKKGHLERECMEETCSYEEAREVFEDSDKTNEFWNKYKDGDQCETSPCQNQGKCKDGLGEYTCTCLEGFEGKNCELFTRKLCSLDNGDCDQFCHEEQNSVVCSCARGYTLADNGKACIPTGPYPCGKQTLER
T1 sequence (P03951 388-625 limits assumed): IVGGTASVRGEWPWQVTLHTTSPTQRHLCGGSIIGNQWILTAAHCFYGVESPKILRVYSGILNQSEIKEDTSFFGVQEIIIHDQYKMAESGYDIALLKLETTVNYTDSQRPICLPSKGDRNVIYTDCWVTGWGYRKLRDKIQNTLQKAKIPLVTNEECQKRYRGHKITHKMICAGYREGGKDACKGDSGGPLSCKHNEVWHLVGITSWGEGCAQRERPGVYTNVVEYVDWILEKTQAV
T1 sequence (P03951 19-387 partner limits assumed): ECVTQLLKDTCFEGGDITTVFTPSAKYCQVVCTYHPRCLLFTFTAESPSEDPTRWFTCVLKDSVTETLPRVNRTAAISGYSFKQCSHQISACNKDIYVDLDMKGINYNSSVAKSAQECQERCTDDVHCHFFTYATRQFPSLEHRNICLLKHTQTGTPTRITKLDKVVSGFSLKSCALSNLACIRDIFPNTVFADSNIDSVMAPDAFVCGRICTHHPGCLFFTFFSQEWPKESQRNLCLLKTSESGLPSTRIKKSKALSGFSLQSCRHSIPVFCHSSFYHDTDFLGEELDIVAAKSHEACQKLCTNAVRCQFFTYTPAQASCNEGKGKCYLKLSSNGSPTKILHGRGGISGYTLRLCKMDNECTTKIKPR

| Compound | pIC50 (human Factor XIa) | FXIa Fold Selectivity FXa (Factor Xa) | FXIa Fold Selectivity Thrombin (Thrombin) | FXIa Fold Selectivity Trypsin (Trypsin) | half-life [1] | fraction unbound at 4 h, 10 µM (in vitro [2]) | solubility at 4 h (physchem) | half-life at 0.1 µM (in vitro [3]) |
| --- | --- | --- | --- | --- | --- | --- | --- | --- |
| O=C(O)[C@@H]1[C@@H](CCc2cccc(Cl)c2)C(=O)N1C(=O)N[C@@H](C1CCCCC1)C(F)(F)F [Example 134] | 6.00 to 7.00 | G (“G” indicates 1-500) | G (“G” indicates 1-500) | G (“G” indicates 1-500) | > 1.67 h | < 0.02 | > 100 µM | 0.5 to 1 h |
| C[C@@H](NC(=O)N1C(=O)[C@H](Cc2ccncc2)[C@H]1C(=O)O)c1ccc2c(c1)OC(F)(F)O2 [Example 169] | 6.00 to 7.00 | G (“G” indicates 1-500) | H (“H” indicates 500-1000) | G (“G” indicates 1-500) | > 1.67 h | 0.02 to 0.1 | > 100 µM | > 1 h |
